The values below come from patent US8512725B2, “Method, material and system for controlled release of anti-microbial agents” (Bacstop Corporation Pty Ltd, priority 2004, dated 2013).

Holding throughout (assay): Survival of bacteria inoculated into silver-treated water aliquots
What all share (format): cell-based

Experiment [1] deals with Bacillus cereus NCTC 10320. The settings on record: initial concentration 5.82. Here is the method:
(§1) Several bacterial organisms, E. coli ATCC 11775, Pseudomonas aeruginosa ATCC 27853, and Bacillus cereus NCTC 10320 were inoculated into equal volumes of the abovementioned aliquots to achieve an initial bacterial concentration of approximately 10^6 cells per millilitre. After three predetermined time periods of 5 minutes, 1 hour, and 8 days, aliquots of each solution were withdrawn, and enumeration of surviving organisms was performed. All tests were conducted in duplicate.
(§2) All results are expressed in log10 units.

In experiment [2] the test system is Pseudomonas aeruginosa ATCC 27853. The following applies: initial concentration 5.62. The method, then: as §1, §2
The test system of another experiment is E. coli ATCC 11775. The settings on record: initial concentration 5.81. The method, then:
as §1, §2

Where [3] appears, read: sodium hypochlorite 0.5 ppm, period 5 min.
Where [4] appears, read: sodium hypochlorite 0.5 ppm, period 1 hour.
Where [5] appears, read: sodium hypochlorite 0.5 ppm, period 8 days.

For the compound `[Na+].[O-]Cl` [NaOCl, sodium hypochlorite, reference compound], the figures for the “surviving organisms, Bacillus cerus” value in experiment [1] (setting [3]), in experiment [1] (setting [4]) and in experiment [1] (setting [5]) were 4.61 log10 units, 4.61 log10 units and 4.90 log10 units, respectively. The “surviving organisms, Pseudomonas aeruginosa” value in experiment [2] (setting [3]) worked out at 5.62 log10 units; in experiment [2] (setting [4]), 5.63 log10 units; in experiment [2] (setting [5]) it was 4.98 log10 units. The results for the “surviving organisms, E. coli” value in the experiment with E. coli ATCC 11775 (setting [3]), in the experiment on E. coli ATCC 11775 (setting [4]) and with E. coli ATCC 11775 (setting [5]) were 5.82 log10 units, 5.81 log10 units and 4.48 log10 units, respectively.

In the case of `[Ag]` [Silver, silver], the “surviving organisms, Bacillus cerus” value in experiment [1] (silver 50 ppb, period 5 min) is recorded as 4.60 log10 units; in experiment [1] (silver 50 ppb, period 1 hour), 2.30 log10 units; in experiment [1] (silver 50 ppb, period 8 days), 0 log10 units; in experiment [1] (silver 111 ppb, period 5 min), 4.20 log10 units; in experiment [1] (silver 111 ppb, period 1 hour), 2.00 log10 units; in experiment [1] (silver 111 ppb, period 8 days), 0 log10 units. Moreover, the “surviving organisms, Bacillus cerus” value in experiment [1] (silver 190 ppb, period 5 min) came out at 4.28 log10 units; in experiment [1] (silver 190 ppb, period 1 hour), 1.93 log10 units; in experiment [1] (silver 190 ppb, period 8 days) it was 0 log10 units; in experiment [1] (silver 373 ppb, period 5 min) it was 4.19 log10 units; in experiment [1] (silver 373 ppb, period 1 hour), 0 log10 units; in experiment [1] (silver 373 ppb, period 8 days), 0 log10 units. For the same compound, the “surviving organisms, Pseudomonas aeruginosa” value worked out at 5.61 log10 units in experiment [2] (silver 50 ppb, period 5 min); 5.27 log10 units in experiment [2] (silver 50 ppb, period 1 hour); 3.23 log10 units in experiment [2] (silver 50 ppb, period 8 days); 5.61 log10 units in experiment [2] (silver 111 ppb, period 5 min); 4.98 log10 units in experiment [2] (silver 111 ppb, period 1 hour); 2.59 log10 units in experiment [2] (silver 111 ppb, period 8 days). Further, the “surviving organisms, Pseudomonas aeruginosa” value in experiment [2] (silver 190 ppb, period 5 min) came to 5.61 log10 units; in experiment [2] (silver 190 ppb, period 1 hour), 5.00 log10 units; in experiment [2] (silver 190 ppb, period 8 days), 1.10 log10 units; in experiment [2] (silver 373 ppb, period 5 min), 5.62 log10 units; in experiment [2] (silver 373 ppb, period 1 hour), 5.10 log10 units; in experiment [2] (silver 373 ppb, period 8 days), 2.00 log10 units. For the same compound, the “surviving organisms, E. coli” value with E. coli ATCC 11775 (silver 50 ppb, period 5 min) is reported as 5.81 log10 units; in the experiment with E. coli ATCC 11775 (silver 50 ppb, period 1 hour) it was 4.79 log10 units; in the experiment with E. coli ATCC 11775 (silver 50 ppb, period 8 days) it was 0 log10 units; in the experiment with E. coli ATCC 11775 (silver 111 ppb, period 5 min), 5.77 log10 units; with E. coli ATCC 11775 (silver 111 ppb, period 1 hour), 4.48 log10 units; with E. coli ATCC 11775 (silver 111 ppb, period 8 days) it was 0 log10 units. Moreover, the “surviving organisms, E. coli” value with E. coli ATCC 11775 (silver 190 ppb, period 5 min) was determined as 5.76 log10 units; with E. coli ATCC 11775 (silver 190 ppb, period 1 hour) it was 3.74 log10 units; in the experiment with E. coli ATCC 11775 (silver 190 ppb, period 8 days) it was 0 log10 units; with E. coli ATCC 11775 (silver 373 ppb, period 5 min) it was 5.79 log10 units; with E. coli ATCC 11775 (silver 373 ppb, period 1 hour), 3.88 log10 units; in the experiment with E. coli ATCC 11775 (silver 373 ppb, period 8 days) it was 0 log10 units.
